Assay results published in PMC9381947 (Antiviral Research, 2022).
pIC50, pKd: −log10 of the molar value. “Also recorded” adds a separate entry of the source. Like-named read-outs stand apart in the source and are kept apart here.

How the values were obtained:
[1] = molecular target: T1, SARS-CoV-2 NSP13 helicase (Severe acute respiratory syndrome coronavirus 2, UniProt P0DTD1); test: biochemical; settings: for inhibition at 20 µM: read-out: inhibitory activity against NSP13, confirmation screen; for NSP13 helicase inhibition relative to PUG: compared with PUG
[2] = molecular target: SARS-CoV-2 NSP13 ATPase activity (Severe acute respiratory syndrome coronavirus 2, UniProt P0DTD1); test: Luciferase-coupled ATP assay; format: biochemical
NSP13/DNA complex = NSP13/DNA complex (Severe acute respiratory syndrome coronavirus 2, UniProt P0DTD1); test: Electrophoretic mobility shift assay; format: biochemical, SARS-CoV-2; settings: pre-incubation of NSP13 with compound, FAM-labeled 5ˊ flap DNA
[3] = molecular target: T1, SARS-CoV-2 NSP13 helicase; test: Gel-based DNA unwinding assay; format: biochemical; settings: PUG at concentrations over 1 μM
SARS-CoV-2 NSP13 = SARS-CoV-2 NSP13 (Severe acute respiratory syndrome coronavirus 2, UniProt P0DTD1); test: Surface plasmon resonance; format: binding; settings: SPR, NSP13 coupled to CM5 chip
[4] = system: human adenovirus (HAdV) type 7 (HAdV-7); test: Antiviral assay in A549 cells; settings: 48 h, qRT-PCR, listed as PUG
[5] = read-out: IC50 against NSP13 helicase activity, Table 1
[6] = read-out: IC50 against NSP13 helicase activity
[7] = IC50 against NSP13 helicase activity, Table 1
[8] = IC50, DNA unwinding activity of NSP13, text and figures

## O=C(N/N=C/c1cc(O)c(O)cc1O)c1cc2ccccc2cc1O [Dyngo-4a, reference compound]
[1]; [5]
  pIC50: 6.20

## O=C(O)CSc1cc(NS(=O)(=O)c2ccc(Br)cc2)c2ccccc2c1O [UMI-77, reference compound]
[1]; [6]
  pIC50: 5.36

## O=c1cc(-c2ccccc2)oc2cc(O)c(O)c(O)c12 [Baicalein, reference compound]
[1]
  inhibition at 20 µM: > 70%

## Oc1cc(O)c2c(c1)O[C@H](c1cc(O)c(O)c(O)c1)[C@H](O)[C@H]2c1c(O)cc(O)c2c1O[C@H](c1cc(O)c(O)c(O)c1)[C@H](O)[C@H]2c1c(O)cc(O)c2c1O[C@H](c1cc(O)c(O)c(O)c1)[C@H](O)C2 [Katacine]
[1]; [7]
  pIC50: 5.22

## O=c1oc2c(O)c(O)cc3c(=O)oc4c(O)c(O)cc1c4c23 [EA, ellagic acid]
[1]; IC50, DNA unwinding activity of NSP13, text
  pIC50: ~5.55
[1]
  NSP13 helicase inhibition relative to PUG: about six times weaker
[2]; 10 μM ATP
  inhibition of ATP hydrolysis by NSP13: much weaker inhibition
NSP13/DNA complex
  NSP13/DNA complex formation (EMSA): reduced the complex formation in a concentration-dependent manner; also recorded: much weaker inhibition

## CC(C)[C@H](NC(=O)CCCCCN1C(=O)C=CC1=O)C(=O)N[C@@H](CCCNC(N)=O)C(=O)Nc1ccc(COC(=O)Oc2ccc([N+](=O)[O-])cc2)cc1 [MC-Val-Cit-PABC-PNP]
[1]; [6]
  pIC50: 5.61

## O=C([O-])c1cc(=O)[nH]c(=O)[nH]1.O=C([O-])c1cc(=O)[nH]c(=O)[nH]1.[Zn+2] [Zinc Orotate]
[1]; [5]
  pIC50: 5.39

## Bismuth subsalicylat [reference compound]
[1]; 20 µM
  inhibitory activity against NSP13, confirmation screen: more than 70%

## O=c1c(O)c(-c2cc(O)c(O)c(O)c2)oc2cc(O)cc(O)c12 [Myricetin, reference compound]
[1]
  inhibition at 20 µM: > 70%

## O=C1O[C@@H]2[C@@H](OC(=O)c3cc(O)c(O)c(O)c3-c3c1cc(O)c(O)c3O)[C@H](O)O[C@@H]1COC(=O)c3cc(O)c(O)c(O)c3-c3c(O)c(O)c4oc(=O)c5c(c(O)c(O)c6oc(=O)c3c4c65)-c3c(cc(O)c(O)c3O)C(=O)O[C@@H]21 [Punicalagin, 2,3-hexahydroxydiphenoyl-gallagyl-D-glucose]
[1]; [8]
  pIC50: 6.37
[1]; [7]
  pIC50: 6.37
[3]
  helicase activity of NSP13 in gel-based DNA unwinding assay: nearly abolished
SARS-CoV-2 NSP13
  pKd: 7.67
[2]; with increasing concentrations of PUG
  Km of NSP13 ATPase: increased
[4]
  antiviral effect against HAdV-7: did not show detectable antiviral effects

## O=C1OC[C@H]2OC(O)[C@H](O)[C@@H](O)[C@@H]2OC(=O)c2cc(O)c(O)c(O)c2-c2c(O)c(O)c3oc(=O)c4c(c(O)c(O)c5oc(=O)c2c3c54)-c2c1cc(O)c(O)c2O (mixture of isomers) [PUL, punicalin]
[1]; [8]
  pIC50: ~6.27
[1]
  NSP13 helicase inhibition relative to PUG: comparable inhibitory activity
[3]
  helicase activity of NSP13 in gel-based DNA unwinding assay: slightly weak inhibitory effect than PUG
NSP13/DNA complex
  NSP13/DNA complex formation (EMSA): reduced the complex formation in a concentration-dependent manner

## O=c1cc(-c2ccc(O)cc2)oc2cc(O)c(O)c(O)c12 [Scutellarein, reference compound]
[1]
  inhibition at 20 µM: > 70%

## CC(C)c1cc2c(c(O)c1O)[C@@]13CCCC(C)(C)[C@@H]1[C@H](OC3=O)[C@H]2O [Rosmanol]
[1]; [7]
  pIC50: 5.05

## Tannic acid
[1]; [5]
  pIC50: 5.90
